Data set [1] concerns TMD8 (ABC-DLBCL) cells. The data set can be described thus: Antitumor activity study of compound A in combination with GA101/RTX in TMD8 xenograft model (Example 2). Format: in vivo, SCID mice. The following applies: for Tumor growth inhibition (TGI): vs vehicle group, GA101 3 mg/kg i.v. Q7Dx4, RTX 3 mg/kg i.v. Q7Dx4, compound A 10 mg/kg p.o. twice daily. Here is the method:
Mice were xenografted on DO. […] Mice received one IV injection of Rituximab (at 3 mg/kg) or one IV injection of GA101 (at 3 mg/kg) once a week (D14 (Day 0), 21 (Day 7), 28 (Day 14) and 35 (Day 21): Q7D×4). Tumor volumes were monitored and recorded twice a week.
Compound A was per os (PO) administered to mice twice daily by oral gavage via a disposable oral feeding needle (Fuchigami Kikai Co.) at 10 ml/kg. GA101/Rituximab were intravenously (IV) injected at 10 ml/kg in the caudal vein of mice. For all treatments, the administration volumes were adapted according to the closest measure of individual body weight for each mouse. The compound A b.i.d. group and the vehicle group received compound A and 0.5% MC, respectively, in the morning and afternoon at an interval of 8 h or more.
(§1) Female C.B-17/lcr-SCID/SCIDJcl mice (Clea Japan Inc., age at initiation of experiment: 6 weeks; hereinafter referred to as “Scid mice”) were used. The mice were kept in metal mouse cages, 3 to 5 to a cage, and underwent about 1 week acclimation period prior to being subjected to the experiment. While at our facility, the animals were allowed solid feed, CRF-1 (Oriental Yeast Co., Ltd.) and tap water (from an automatic dispenser) ad libitum. Excrement was processed with an automated cleaning system. The general condition of the animals was observed upon receipt and at the completion of acclimation. Animals having no problems with general condition were used in the experiment.
(§2) TMD8 was established from cells of a patient with diffuse large B-cell lymphoma (Tohda S et al., Leuk Res., 2006, 30: 1385-90). RPMI Medium 1640 (Invitrogen Corporation, hereinafter referred to as “RPMI”) containing 10 vol % inactivated FBS and 1 vol % Penicillin-Streptomycin liquid (Invitrogen Corporation) was prepared and used as medium. The medium was stored at 5° C. (allowable range: 1° C. to 9° C.). The cell suspension of 4×106 to 2.0×10^7 cells per dish was inoculated in a 150 mm dish containing the medium. The plates were incubated at 37° C., 5% CO2, 95% air.
(§3) At Day 0, the pellet was suspended in RPMI previously cooled on ice to obtain a 2×10^8 cells/mL cell suspension. The RPMI cell suspension and equal volume of BD Matrigel GFR (BD Biosciences) were combined to prepare a 1×10^8 cells/mL cell suspension. This was used as the cell suspension for implantation. Then, 0.1 mL of cell suspension was subcutaneously injected in the right flank of the mice under pentobarbital anesthesia, using a 25-gauge needle (Terumo Corporation).
(§4) The long axis and short axis of the tumors were measured with electronic calipers (Mitutoyo Corporation) every 2 or 4 days from TMD8 implantation to the final assessment day.
(§5) The primary endpoint was tumor volume on the final assessment day. In addition, the tumor growth inhibition rate (TGI, %) in the treatment groups versus the vehicle group was calculated. Temporal change in tumor volume and body weight from Day 0 were used as secondary endpoints. Tumor volume was calculated with the following formula. Tumor volume=Long axis of tumor×(short axis of tumor)2×0.5
The experiment in Example 2 was performed according to the method described in Example 1 except for the following “substance vehicle” and “treatment schedule”.
(§6) Compound A was weighed out and suspended in a 0.5 w/v % methyl cellulose 400 cP solution (Wako Pure Chemical Industries, Ltd., hereinafter referred to as “0.5% MC”), using a mortar and pestle, to obtain a 1 mg/mL (10 mg/kg) suspension. The suspension was used within 7 days of preparation.
The stock solutions of both GA101 (25 mg/mL) and Rituximab (10 mg/mL) were kept at 4° C. Before administration to mice, the stock solutions were diluted in NaCl 0.9% at 0.3 mg/mL (3 mg/kg) for this study.
When the mean tumor volume reached 400 to 450 mm^3 mice were randomized in groups of 6 according to their individual tumor volumes and treatment was initiated.

Data set [2] concerns TMD8 (ABC-DLBCL) cells. The data set is described as follows: Antitumor activity study of compound A or compound B (in diet) in combination with RTX in TMD8 xenograft model (Example 3). As to conditions: for Tumor growth inhibition (TGI): vs vehicle group, RTX 3 mg/kg i.v. Q7Dx3, compound A 0.0037% in diet (6 mg/kg/day), compound B 0.012% in diet (20 mg/kg/day). The data set is classed as in vivo, SCID mice. Here is the method:
Mice were xenografted on DO. […] Mice received one IV injection of Rituximab (at 3 mg/kg) once a week (D14 (Day 0), 21 (Day 7) and 28 (Day 14): Q7D×3). Tumor volumes were monitored and recorded at Day 3, Day 7, Day 11, Day 14, Day 18 and Day 21.
as §1, §2, §3, §4, §5
The experiment in Example 3 was performed according to the method described in Example 1 except for the following “substance vehicle”, “route of drug administration” and “treatment schedule”
The comparative substance, ibrutinib (hereinafter referred to as “compound B”), was stored in sealed containers at ambient temperature, protected from light.
The dose of compound A or compound B corresponds to a daily intake of 6 or 20 mg/kg of body weight.
Treatment groups: Mice fed the same diet containing compound A or compound B after randomization. Rituximab was administered intravenously at a 3 mg/kg once weekly.
Tumor diameter was measured and tumor volume was calculated every 3 or 4 days after group assignment.

Data set [3] can be described thus: Stability and uniformity of compound A suspension in 0.5% methyl cellulose. The following applies: 1 mg/mL suspension in 0.5% MC; 7 days under refrigeration, protected from light, and a further 24 hours at ambient temperature exposed to indoor lighting. Format: physicochemical. Here is the method: Compound A was weighed out and suspended in a 0.5 w/v % methyl cellulose 400 cP solution (Wako Pure Chemical Industries, Ltd., hereinafter referred to as “0.5% MC”), using a mortar and pestle, to obtain a 1 mg/mL suspension. The suspension was used within 7 days of preparation.
as §6

Data set [4] relates to TMD8 (ABC-DLBCL) cells. The data set is described as follows: Antitumor efficacy study of compound A in combination with GA101 in SCID mice subcutaneously xenografted with TMD8 cells (Example 1). The data set is classed as in vivo. As to conditions: GA101 1 and 3 mg/kg i.v. Q7Dx4. Here is the method:
Mice were xenografted on DO. Mice received one PO administration of vehicle and compound A at 10 mg/kg twice every day (Q0.5D×24) alone or in combination with one IV injection of GA101 at 1 and 3 mg/kg once a week (Q7D×4). Mice received one IV injection of Rituximab (at 3 mg/kg) or one IV injection of GA101 (at 1 and 3 mg/kg) once a week (D14 (Day 0), 21 (Day 7), 28 (Day 14) and D35 (Day 21): Q7D×4). Tumor volumes were monitored and recorded twice a week.
Antitumor efficacy study of BTK inhibitor in combination with anti-CD20 Abs in SCID mice subcutaneously xenografted with TMD8 (ABC-DLBCL) cells
The test substance, 6-amino-9-[(3R)-1-(2-butynoyl)-3-pyrrolidinyl]-7-(4-phenoxyphenyl)-7,9-dihydro-8H-purin-8-one hydrochloride (hereinafter referred to as “compound A”), was stored in sealed containers at ambient temperature, protected from light.
Compound A was weighed out and suspended in a 0.5 w/v % methyl cellulose 400 cP solution (Wako Pure Chemical Industries, Ltd., hereinafter referred to as “0.5% MC”), using a mortar and pestle, to obtain a 1 mg/mL suspension. The suspension was used within 7 days of preparation. […]
TMD8 was established from cells of a patient with diffuse large B-cell lymphoma (Tohda S et al., Leuk Res., 2006, 30: 1385-90). […] Cells were counted in a hemocytometer and their viability was at least 90% the day of cells injection. […]

Counter-ions that a name gives are not always drawn. Where only a bound is given, the exact number is not on record here.

With `CC#CC(=O)N1CC[C@@H](n2c(=O)n(-c3ccc(Oc4ccccc4)cc3)c3c(N)ncnc32)C1` [compound A, 6-amino-9-[(3R)-1-(2-butynoyl)-3-pyrrolidinyl]-7-(4-phenoxyphenyl)-7,9-dihydro-8H-purin-8-one hydrochloride], the “Tumor growth inhibition (TGI)” value in data set [1] (day 0) is 0.0%; in data set [1] (day 4), 13.7%; in data set [1] (day 7), 17.6%; in data set [1] (day 11), 34.0%; in data set [1] (day 14) it was 45.8%; in data set [1] (day 18), 46.4%. The “Tumor growth inhibition (TGI)” value in data set [1] (day 21) is listed as 62.6%; in data set [2] (day 0) it was 0.0%; in data set [2] (day 3) it was 12.7%; in data set [2] (day 7) it was 42.8%; in data set [2] (day 11), 47.55%; in data set [2] (day 14), 51.1%. In addition, the “Tumor growth inhibition (TGI)” value in data set [2] (day 18) stood at 61.0%; in data set [2] (day 21), 56.1%. In data set [1] (monotherapy, GA101 or RTX 3 mg/kg i.v., compound A 10 mg/kg p.o.), the “Statistical significance observed after Day” value is above 11 days. The “Antitumor activity compared with the compound B arm” value in data set [2] (compound A 0.0037% vs compound B 0.012% in diet, alone or with RTX 3 mg/kg) is “comparable to compound B (0.012%)”. The “Stability and uniformity of suspension” value in data set [3] is “stable and uniform”.

Consider “GA101: obinutuzumab, afucosylated glyco-engineered humanized B-Ly1 type II anti-CD20 antibody”, for which the “Antitumoral effect (tumour volume curves, FIGS. 1A-1B)” value in data set [4] is on record as “showed an antitumoral effect”. Moreover, the “Tumor growth inhibition (TGI)” value in data set [1] (day 0) came to 1.7%; in data set [1] (day 4) it was 30.9%; in data set [1] (day 7) it was 45.0%; in data set [1] (day 11), 53.3%; in data set [1] (day 14), 63.3%; in data set [1] (day 18) it was 72.2%. In data set [1] (day 21), the “Tumor growth inhibition (TGI)” value is reported as 77.9%.

The values above are taken from patent US12186392B2, “Combination therapy of an anti CD20 antibody with a BTK inhibitor” (Ono Pharmaceutical Co., Ltd., priority 2013, dated 2025).
